# Legend:
# [1] = molecular target: T1, ATIC (Homo sapiens, UniProt P31939); experiment: ATPase profile (ATP acyl phosphate probe); assay type: binding; settings: SEQ ID NO: 47, ATP BS
# T1 construct: to get the native cell lysate; host or cells: A375 cell lysate
# [2] = molecular target: T2, RUVBL1 (Homo sapiens, UniProt Q9Y265); experiment: ATPase profile (ATP acyl phosphate probe); assay type: binding; settings: RUVBL1, SEQ ID NO: 188, ATP BS
# T2 construct: to get the native cell lysate; endogenous in cells; host or cells: A375 cell lysate
# [3] = molecular target: T3, ATAD1 (Homo sapiens, UniProt Q8NBU5); experiment: ATPase profile (ATP acyl phosphate probe); assay type: binding; settings: ATAD1, SEQ ID NO: 44, ATP BS
# T3 construct: to get the native cell lysate; host or cells: A375 cell lysate
# [4] = molecular target: T4, HSP90AB1, HSP90AB3P (Homo sapiens, UniProt P08238); experiment: ATPase profile (ATP acyl phosphate probe); assay type: binding; settings: SEQ ID NO: 98, ATP BS
# T4 construct: to get the native cell lysate; endogenous in cells; host or cells: A375
# [5] = molecular target: T5, PGK1 (Homo sapiens, UniProt P00558); experiment: ATPase profile (ATP acyl phosphate probe); assay type: binding; settings: PGK1, SEQ ID NO: 160, ATP BS
# T5 construct: to get the native cell lysate; endogenous in cells; host or cells: A375 cell lysate
# [6] = molecular target: T6, ABCB7 (Homo sapiens, UniProt O75027); experiment: ATPase profile (ATP acyl phosphate probe); assay type: binding; settings: ABCB7, SEQ ID NO: 4, ATP BS
# T6 construct: to get the native cell lysate; host or cells: A375 cell lysate
# [7] = molecular target: T7, OLA1 (Homo sapiens, UniProt Q9NTK5); experiment: ATPase profile (ATP acyl phosphate probe); assay type: binding; settings: OLA1, SEQ ID NO: 150, ATP BS
# T7 construct: to get the native cell lysate; endogenous in cells; host or cells: A375
# [8] = molecular target: T8, CCT2 (Homo sapiens, UniProt P78371); experiment: ATPase profile (ATP acyl phosphate probe); assay type: binding; settings: CCT2, SEQ ID NO: 51, ATP BS
# T8 construct: to get the native cell lysate; host or cells: A375 cell lysate
# [9] = molecular target: T9, DYNC1H1 (Homo sapiens, UniProt Q14204); experiment: ATPase profile (ATP acyl phosphate probe); assay type: binding
# T9 construct: endogenous in cells; host or cells: A375 cell lysate
# [10] = molecular target: T10, recombinant purified human Mi-2β protein (Homo sapiens, UniProt Q14839); experiment: FRET-based nucleosome repositioning assay (EpiDyne-FRET); assay type: biochemical
# T10 construct: made in house
# Experimental: To screen small molecules that inhibit Mi-2β activity, Homology Modeling was carried out using Structure Prediction Wizard in Prime (49, 50). Mi-2β belongs to the CHD family of chromatin remodelers, which share highly conserved ATPase/helicase domains (51, 52). The Homology Model of Mi-2β was generated using the yeast CHD1 structure (PDB code: 3MWY) as template and the sequence was obtained from Uniprot (53), which clearly depicted the interaction of Mi-2β binding pocket and ATP (FIG. 10a). Virtual screening was done with the enzyme hinge region ligands database and nucleoside mimetic database from Enamine. All ligands of ˜23,010 compounds were docked to the ATP binding site using SP docking and post-processed with Prime MM-GBSA. Ligands with a methyldihydroimidazopyridinone structure were predicted to bind best to the ATP binding region of Mi-2β. To analyze biochemically the inhibitory activity of those inhibitors, a Fluorescence Resonance Energy Transfer (FRET)-based nucleosome repositioning assay (54, 55) was designed and modified using recombinant purified human Mi-2β protein to screen an in-house library of small molecular compounds with a methyldihydroimidazopyridinone structure (FIG. 10b). Briefly, the recombinant nucleosome substrates consist of a Cy5-labeled human histone octamer (H2A T120C-Cy5) wrapped with 5′ Cy3-labeled DNA, which contains a terminal nucleosome 601 positioning sequence. The 601 sequence provides the most thermodynamically preferred locations on DNA for histone octamer (56). FRET signaling was monitored by exciting the nucleosomes at the Cy3 absorption maximum and measuring Cy5 emissions and consequently the FRET signal is at a maximum at the assembled starting point. In the presence of ATP, Mi-2β induces the histone octamer to translocate along the DNA such that the Cy3-labeled DNA 5′ end is moved away from the Cy5-labeled octamer and consequently the FRET signal is decreased (FIG. 10b). The reaction conditions for nucleosome repositioning were modified through multiple rounds of optimization and validation (FIG. 10c-d). […]
# [11] = molecular target: T11, LONP1 (Homo sapiens, UniProt P36776); experiment: ATPase profile (ATP acyl phosphate probe); assay type: binding; settings: LONP1, SEQ ID NO: 115, labeling site Other
# T11 construct: to get the native cell lysate; endogenous in cells; host or cells: A375
# [12] = molecular target: T12, PSMC5 (Homo sapiens, UniProt P62195); experiment: ATPase profile (ATP acyl phosphate probe); assay type: binding; settings: PSMC5, SEQ ID NO: 177, ATP BS
# T12 construct: to get the native cell lysate; endogenous in cells; host or cells: A375 cell lysate
# [13] = molecular target: T13, TOR1A (Homo sapiens, UniProt O14656); experiment: ATPase profile (ATP acyl phosphate probe); assay type: binding; settings: SEQ ID NO: 203, ATP BS
# T13 construct: to get the native cell lysate; endogenous in cells; host or cells: A375 cell lysate
# [14] = molecular target: T14, NUDT7 (Homo sapiens, UniProt P0C024); experiment: ATPase profile (ATP acyl phosphate probe); assay type: binding; settings: NUDT7, SEQ ID NO: 147, ATP BS
# T14 construct: to get the native cell lysate; endogenous in cells; host or cells: A375
# T14 sequence (P0C024 whole entry): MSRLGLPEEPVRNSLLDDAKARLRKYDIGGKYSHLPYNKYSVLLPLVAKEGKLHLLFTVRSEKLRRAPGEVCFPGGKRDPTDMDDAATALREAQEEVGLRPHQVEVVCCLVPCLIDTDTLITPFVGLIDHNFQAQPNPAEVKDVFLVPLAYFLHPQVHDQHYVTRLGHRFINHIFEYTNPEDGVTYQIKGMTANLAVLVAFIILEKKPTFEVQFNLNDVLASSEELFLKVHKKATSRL
# T9 sequence (Q14204 whole entry): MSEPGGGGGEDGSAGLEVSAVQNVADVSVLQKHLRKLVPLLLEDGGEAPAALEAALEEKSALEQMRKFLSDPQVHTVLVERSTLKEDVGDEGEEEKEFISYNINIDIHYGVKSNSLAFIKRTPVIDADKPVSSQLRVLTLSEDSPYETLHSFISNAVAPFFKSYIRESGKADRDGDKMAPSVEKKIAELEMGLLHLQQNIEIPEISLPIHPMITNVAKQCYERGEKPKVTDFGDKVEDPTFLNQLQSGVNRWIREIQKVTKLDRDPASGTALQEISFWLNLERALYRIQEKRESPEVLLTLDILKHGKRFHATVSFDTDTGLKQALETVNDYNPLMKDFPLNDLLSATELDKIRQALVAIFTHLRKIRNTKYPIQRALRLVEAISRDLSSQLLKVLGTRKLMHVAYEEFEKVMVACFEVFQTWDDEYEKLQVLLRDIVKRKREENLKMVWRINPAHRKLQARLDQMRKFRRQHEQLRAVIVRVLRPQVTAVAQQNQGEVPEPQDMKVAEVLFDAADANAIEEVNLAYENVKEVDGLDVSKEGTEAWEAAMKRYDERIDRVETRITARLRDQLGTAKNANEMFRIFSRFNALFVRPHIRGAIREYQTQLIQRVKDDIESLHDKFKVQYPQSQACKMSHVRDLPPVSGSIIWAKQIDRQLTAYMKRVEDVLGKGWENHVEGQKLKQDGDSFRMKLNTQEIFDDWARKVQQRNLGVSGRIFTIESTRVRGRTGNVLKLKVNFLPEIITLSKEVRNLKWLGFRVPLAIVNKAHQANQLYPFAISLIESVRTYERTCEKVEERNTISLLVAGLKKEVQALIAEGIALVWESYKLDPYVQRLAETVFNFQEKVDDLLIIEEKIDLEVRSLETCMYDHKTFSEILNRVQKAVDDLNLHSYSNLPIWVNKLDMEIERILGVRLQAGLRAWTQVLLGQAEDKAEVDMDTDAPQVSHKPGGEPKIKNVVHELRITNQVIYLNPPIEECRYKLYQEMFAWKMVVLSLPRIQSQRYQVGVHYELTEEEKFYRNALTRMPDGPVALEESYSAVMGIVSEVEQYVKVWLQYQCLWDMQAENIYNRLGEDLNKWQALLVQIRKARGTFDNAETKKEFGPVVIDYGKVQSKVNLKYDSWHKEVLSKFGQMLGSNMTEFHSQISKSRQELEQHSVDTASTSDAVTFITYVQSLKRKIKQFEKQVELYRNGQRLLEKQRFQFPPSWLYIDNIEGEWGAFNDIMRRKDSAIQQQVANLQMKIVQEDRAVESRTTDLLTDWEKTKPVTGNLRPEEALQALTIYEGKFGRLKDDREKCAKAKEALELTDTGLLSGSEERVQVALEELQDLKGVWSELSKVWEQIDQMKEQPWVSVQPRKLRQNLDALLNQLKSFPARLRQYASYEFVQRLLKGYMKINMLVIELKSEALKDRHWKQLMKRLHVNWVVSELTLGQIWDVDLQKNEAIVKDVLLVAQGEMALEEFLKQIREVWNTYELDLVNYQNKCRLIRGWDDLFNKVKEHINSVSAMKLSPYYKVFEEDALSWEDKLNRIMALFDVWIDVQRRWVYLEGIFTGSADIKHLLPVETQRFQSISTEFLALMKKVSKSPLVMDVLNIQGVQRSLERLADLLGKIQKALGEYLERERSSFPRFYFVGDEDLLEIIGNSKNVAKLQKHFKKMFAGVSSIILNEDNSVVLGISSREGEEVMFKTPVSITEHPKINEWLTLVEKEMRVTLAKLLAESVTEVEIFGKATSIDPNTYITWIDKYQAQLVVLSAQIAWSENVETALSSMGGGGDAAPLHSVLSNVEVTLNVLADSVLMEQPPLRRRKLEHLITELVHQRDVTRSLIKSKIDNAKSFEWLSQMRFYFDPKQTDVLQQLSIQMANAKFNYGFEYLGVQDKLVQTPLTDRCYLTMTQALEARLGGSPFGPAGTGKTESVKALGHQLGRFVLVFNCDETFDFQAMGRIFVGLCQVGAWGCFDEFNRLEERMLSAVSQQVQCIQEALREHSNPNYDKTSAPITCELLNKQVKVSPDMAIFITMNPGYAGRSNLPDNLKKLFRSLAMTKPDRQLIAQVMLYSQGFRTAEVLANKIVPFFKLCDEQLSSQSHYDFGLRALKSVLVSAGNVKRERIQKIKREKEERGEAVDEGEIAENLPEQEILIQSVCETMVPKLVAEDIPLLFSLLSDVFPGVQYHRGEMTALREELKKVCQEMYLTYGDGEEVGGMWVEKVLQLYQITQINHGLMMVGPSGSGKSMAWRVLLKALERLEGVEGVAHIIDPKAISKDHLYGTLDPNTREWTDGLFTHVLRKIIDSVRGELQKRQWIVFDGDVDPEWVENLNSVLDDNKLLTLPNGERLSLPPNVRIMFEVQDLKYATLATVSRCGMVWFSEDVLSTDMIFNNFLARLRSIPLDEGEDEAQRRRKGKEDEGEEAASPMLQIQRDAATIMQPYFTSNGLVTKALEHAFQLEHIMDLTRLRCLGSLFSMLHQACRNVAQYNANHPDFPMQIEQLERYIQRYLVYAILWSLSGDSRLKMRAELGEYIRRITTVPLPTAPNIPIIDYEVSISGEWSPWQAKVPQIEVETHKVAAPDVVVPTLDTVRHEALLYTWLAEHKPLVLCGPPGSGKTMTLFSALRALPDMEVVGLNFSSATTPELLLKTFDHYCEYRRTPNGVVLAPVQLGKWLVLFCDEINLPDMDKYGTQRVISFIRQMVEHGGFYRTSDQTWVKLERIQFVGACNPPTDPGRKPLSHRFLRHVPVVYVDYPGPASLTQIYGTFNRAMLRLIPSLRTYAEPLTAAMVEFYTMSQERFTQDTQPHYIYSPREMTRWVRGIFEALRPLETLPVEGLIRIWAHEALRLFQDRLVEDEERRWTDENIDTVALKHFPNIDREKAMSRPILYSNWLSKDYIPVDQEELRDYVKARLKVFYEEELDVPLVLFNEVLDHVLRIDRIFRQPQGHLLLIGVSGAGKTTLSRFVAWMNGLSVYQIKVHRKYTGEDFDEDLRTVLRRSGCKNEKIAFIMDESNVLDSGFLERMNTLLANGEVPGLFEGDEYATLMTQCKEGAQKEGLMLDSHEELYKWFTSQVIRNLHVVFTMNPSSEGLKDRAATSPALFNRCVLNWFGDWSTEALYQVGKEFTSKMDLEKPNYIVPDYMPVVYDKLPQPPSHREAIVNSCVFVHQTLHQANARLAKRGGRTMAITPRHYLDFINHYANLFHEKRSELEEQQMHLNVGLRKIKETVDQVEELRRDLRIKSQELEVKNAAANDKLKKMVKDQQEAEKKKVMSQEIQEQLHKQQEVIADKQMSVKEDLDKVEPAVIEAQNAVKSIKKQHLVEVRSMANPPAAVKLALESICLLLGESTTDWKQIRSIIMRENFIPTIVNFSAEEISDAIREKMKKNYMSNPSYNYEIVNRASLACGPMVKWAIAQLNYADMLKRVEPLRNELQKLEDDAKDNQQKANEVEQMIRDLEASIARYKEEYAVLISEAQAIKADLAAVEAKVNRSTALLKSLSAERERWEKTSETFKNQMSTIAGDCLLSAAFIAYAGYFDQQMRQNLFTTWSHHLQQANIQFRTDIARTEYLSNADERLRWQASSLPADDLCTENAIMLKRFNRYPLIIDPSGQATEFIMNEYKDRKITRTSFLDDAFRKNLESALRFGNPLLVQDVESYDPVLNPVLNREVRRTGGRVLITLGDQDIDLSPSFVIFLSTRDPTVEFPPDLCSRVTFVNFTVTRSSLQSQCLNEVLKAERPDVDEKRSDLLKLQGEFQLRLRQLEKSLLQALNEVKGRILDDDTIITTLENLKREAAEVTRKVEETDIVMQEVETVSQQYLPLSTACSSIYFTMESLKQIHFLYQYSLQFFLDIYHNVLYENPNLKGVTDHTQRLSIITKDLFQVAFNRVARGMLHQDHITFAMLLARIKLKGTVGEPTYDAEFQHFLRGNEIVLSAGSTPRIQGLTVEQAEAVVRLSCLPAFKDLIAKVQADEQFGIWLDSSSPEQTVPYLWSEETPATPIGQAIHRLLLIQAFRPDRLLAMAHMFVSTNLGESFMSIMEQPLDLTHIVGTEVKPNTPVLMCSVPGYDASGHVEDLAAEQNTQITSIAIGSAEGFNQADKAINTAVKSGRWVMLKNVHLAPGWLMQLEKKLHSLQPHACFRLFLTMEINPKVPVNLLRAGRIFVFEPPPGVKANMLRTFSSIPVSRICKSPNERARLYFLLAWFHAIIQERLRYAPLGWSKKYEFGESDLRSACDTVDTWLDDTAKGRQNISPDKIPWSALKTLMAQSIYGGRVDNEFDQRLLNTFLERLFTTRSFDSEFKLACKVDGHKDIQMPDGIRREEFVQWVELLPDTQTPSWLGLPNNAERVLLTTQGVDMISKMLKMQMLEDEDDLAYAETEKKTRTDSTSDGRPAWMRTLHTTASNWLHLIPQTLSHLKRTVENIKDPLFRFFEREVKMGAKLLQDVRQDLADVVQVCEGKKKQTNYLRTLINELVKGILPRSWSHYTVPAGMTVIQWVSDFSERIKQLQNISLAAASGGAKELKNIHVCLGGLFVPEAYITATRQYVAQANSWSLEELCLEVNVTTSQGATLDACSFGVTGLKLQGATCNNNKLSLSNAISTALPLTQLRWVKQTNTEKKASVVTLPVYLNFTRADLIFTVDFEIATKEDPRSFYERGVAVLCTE
structure (smiles),measurement,setting,value
"Cn1c(=O)[nH]c2ccc(-c3cccc(C(=O)NC4CCn5ccnc5C4)c3)cc21 (stereo not shown) [Z36-MP5, 3-(3-methyl-2-oxo-2,3-dihydro-1H-benzo[d]imidazol-5-yl)-N-(5,6,7,8-tetrahydroimidazo[1,2-a]pyridin-7-yl)benzamide]",Inhibition (%) by 1 μM Z36-MP5,[1],4.08%
same,Inhibition (%) by 1 μM Z36-MP5,[2],−15.57%
same,Inhibition (%) by 1 μM Z36-MP5,[3],15.67%
same,Inhibition (%) by 1 μM Z36-MP5,[4],−16.94%
same,Inhibition (%) by 1 μM Z36-MP5,[5],−4.49%
same,Inhibition (%) by 1 μM Z36-MP5,[6],0.34%
same,Inhibition (%) by 1 μM Z36-MP5,[7],−0.68%
same,Inhibition (%) by 1 μM Z36-MP5,[8],−6.50%
same,Inhibition (%) by 1 μM Z36-MP5,"[9]; DYNC1H1, SEQ ID NO: 74, ATP BS",−1.99%
same,Inhibition (%) by 1 μM Z36-MP5,"[9]; DYNC1H1, SEQ ID NO: 75, ATP BS",0.38%
same,IC50,"[10]; FRET-based nucleosome repositioning assay, read-out: IC50 against Mi-2β",82 ± 13 nM
same,fold more potent than the original compound Z36,[10]; ratio of IC50 against Mi-2β,~85 fold
same,Inhibition (%) by 1 μM Z36-MP5,[11],1.81%
same,Inhibition (%) by 1 μM Z36-MP5,[12],−3.98%
same,Inhibition (%) by 1 μM Z36-MP5,[13],4.27%
same,Inhibition (%) by 1 μM Z36-MP5,[14],19.75%

# Source: patent US12268674B2, “Mi-2β inhibitor as an immunotherapy agent” (BioVentures, LLC, priority 2021, dated 2025)
